Measured values reported in ChEMBL document CHEMBL4765340, “Novel potent antiplatelet thrombotic agent derived from biguanide for ischemic stroke” (Eur J Med Chem, 2020).
The source made the active and inactive calls. No cut-off for these calls is given here.

Legend:
[1] = Inhibition of thrombin-stimulated human platelet aggregation by measuring aggregation at 0.01 mM measured after 3 hrs by scanning electron microscopy (Rvb= 87.2 +/- 4.0%); format: functional; parameters: scale not given: the % may be the effect or the level left
[2] = Inhibition of thrombin-stimulated human platelet aggregation by measuring aggregation at 0.05 mM measured after 3 hrs by scanning electron microscopy (Rvb= 87.2 +/- 4.0%); format: functional; parameters: scale not given: the % may be the effect or the level left
[3] = Inhibition of thrombin-stimulated human platelet aggregation by measuring aggregation at 0.50 mM measured after 1 hrs by scanning electron microscopy; format: functional; parameters: scale not given: the % may be the effect or the level left; conditions: dose 0.5 mM
Platelet [4] = test: Cytotoxicity against human platelet assessed as extracellular LDH levels changes at 1 mM incubated for 6 hrs; format: cell-based; conditions: 1000 µM
[5] = Suppression of glycoprotein IIb/IIIa activation in thrombin-stimulated human platelets by measuring activated GPIIb/IIIa at 0.05 mM measured after 3 hrs by PAC-1-FITC dye based flow cytometry (reference value: 90.1%); format: functional; conditions: Platelet
[6] = Suppression of glycoprotein IIb/IIIa activation in thrombin-stimulated human platelets by measuring activated GPIIb/IIIa at 0.10 mM measured after 3 hrs by PAC-1-FITC dye based flow cytometry (reference value: 90.1%); format: functional; conditions: Platelet, at 0.1 mM
[7] = Suppression of glycoprotein IIb/IIIa activation in thrombin-stimulated human platelets by measuring activated GPIIb/IIIa at 0.50 mM measured after 3 hrs by PAC-1-FITC dye based flow cytometry (reference value: 90.1%); format: functional; conditions: Platelet, at 0.5 mM
[8] = Suppression of P-selectin expression in thrombin-stimulated human platelets by measuring CD62P positive platelets at 0.01 mM after 3 hrs by flow cytometry analysis (reference value: 78.2%); format: functional; conditions: Platelet
[9] = Suppression of P-selectin expression in thrombin-stimulated human platelets by measuring CD62P positive platelets at 0.05 mM after 3 hrs by flow cytometry analysis (reference value: 78.2%); format: functional; conditions: Platelet
Platelet [10] = test: Antiplatelet activity in human platelet on collagen-coated surface assessed as shear rate pre-incubated at 0.5 mM measured after 3 hrs by fluorescent microscopy (reference value: 100 =/- 7%); format: functional
Mus musculus [11] = test: Antithrombotic activity in calcein-labelled platelet-mediated ferric chloride-induced arterial injury thrombosis C57BL/6J mouse model assessed as thrombus weight at 100 mg/kg, po administrated twice a day measured upto 7 days (reference value: 3.3 +/- 0.3 mg); format: functional; conditions: time day <=7
Mus musculus [12] = test: Antithrombotic activity in calcein-labelled platelet-mediated ferric chloride-induced arterial injury thrombosis C57BL/6J mouse model assessed as thrombus length at 200 mg/kg, po administrated twice a day measured upto 7 days (reference value: 4.4 +/- 0.4 mm); format: functional; conditions: time day <=7
Platelet [13] = test: Antiplatelet activity in thrombin-stimulated human platelet assessed as reduction in the clot retraction preincubated at 0.5 mM with fibrinogen for 3 hrs followed by added thrombin measured after 0.5 hrs (reference value: 80.3 =/- 5.5%); format: functional; parameters: scale not given: the % may be the effect or the level left; conditions: time 3.5 hrs
Mus musculus [14] = test: Antithrombotic activity in transient focal cerebral ischemic mouse model occlusion induced 60 mins of the right middle cerebral artery followed by reperfussion 23 hrs assessed as reduction of neurological deficits at 200 mg/kg, po twice daily for 7 days […]; format: functional, organism-based; conditions: time 7.0 day
Mus musculus [15] = test: Antithrombotic activity in transient focal cerebral ischemic mouse model occlusion induced 60 mins of the right middle cerebral artery followed by reperfussion 23 hrs assessed as decrease in mortality rate at 200 mg/kg, po twice daily for 7 days […]; format: functional, organism-based; conditions: time 7.0 day
[16] = Half life in Sprague-Dawley rat at 200 mg/kg, po measured by HPLC-MS/MS analysis; format: ADME, organism-based; conditions: in vivo
[17] = Apparent clearance during terminal phase in Sprague-Dawley rat at 200 mg/kg, po measured by HPLC-MS/MS analysis; format: ADME, organism-based; conditions: in vivo
[18] = Toxicity against C57BL/6J mouse assessed as lungs morphology at 200 mg/kg twice a day measured after 60 days; format: organism-based; conditions: in vivo, 1440 h, time 60 day
[19] = Toxicity in calcein-labelled platelet-mediated ferric chloride-induced arterial injury thrombosis po dosed C57BL/6J mouse model assessed as change in activated partial thromboplastin time treated twice a day measured upto 7 days; format: organism-based; conditions: in vivo, 168 h, time <=7 day
[20] = Toxicity in calcein-labelled platelet-mediated ferric chloride-induced arterial injury thrombosis po dosed C57BL/6J mouse model assessed as change in thrombin time treated twice a day measured upto 7 days; format: organism-based; conditions: in vivo, 168 h, time <=7 day
Mus musculus [21] = test: Antithrombotic activity in calcein-labelled platelet-mediated ferric chloride-induced arterial injury thrombosis C57BL/6J mouse model assessed as average time to occlusive thrombosis at 50 mg/kg, po administrated twice a day measured upto 7 days (reference value: 7.9 +/- 0.7 min); format: functional; conditions: time day <=7
Mus musculus [22] = test: Antithrombotic activity in calcein-labelled platelet-mediated ferric chloride-induced arterial injury thrombosis C57BL/6J mouse model assessed as average time to occlusive thrombosis at 200 mg/kg, po administrated twice a day measured upto 7 days (reference value: 7.9 +/- 0.7 min); format: functional; conditions: time day <=7
Mus musculus [23] = test: Antithrombotic activity in calcein-labelled platelet-mediated ferric chloride-induced arterial injury thrombosis C57BL/6J mouse model assessed as average time to occlusive thrombosis at 300 mg/kg, po administrated twice a day measured upto 7 days (reference value: 7.9 +/- 0.7 min); format: functional; conditions: time day <=7
Mus musculus [24] = test: Antithrombotic activity in transient focal cerebral ischemic mouse model occlusion induced 60 mins of the right middle cerebral artery followed by reperfussion 23 hrs assessed as activated platelets with red blood cells and loose textured stroke thrombi at 200 mg/kg, po twice daily for 7 days by TTC staining based immuno histochemistry analysis; format: functional, organism-based; conditions: time 7.0 day
Mus musculus [25] = test: Antithrombotic activity in transient focal cerebral ischemic mouse model occlusion induced 60 mins of the right middle cerebral artery followed by reperfussion 23 hrs assessed as decrease in blood viscosity at 200 mg/kg, po twice daily for 7 days; format: functional, organism-based; conditions: time 7.0 day
Mus musculus [26] = test: Antithrombotic activity in transient focal cerebral ischemic mouse model occlusion induced 60 mins of the right middle cerebral artery followed by reperfussion 23 hrs assessed as improve in damaged neural function at 200 mg/kg, po twice daily for 7 days; format: functional, organism-based; conditions: time 7.0 day
[27] = Toxicity in C57BL/6J mouse assessed as change in sodium level at 200 mg/kg twice daily for 60 days relative to control; format: organism-based; conditions: in vivo, 1440 h, time 60 day
[28] = Toxicity in C57BL/6J mouse assessed as change in chloride level at 200 mg/kg twice daily for 60 days relative to control; format: organism-based; conditions: in vivo, 1440 h, time 60 day
[29] = Toxicity in C57BL/6J mouse assessed as change in calcium level at 200 mg/kg twice daily for 60 days relative to control; format: organism-based; conditions: in vivo, 1440 h, time 60 day
[30] = Toxicity in C57BL/6J mouse assessed as change in creatinine level at 200 mg/kg twice daily for 60 days relative to control; format: organism-based; conditions: in vivo, 1440 h, time 60 day
[31] = Toxicity in C57BL/6J mouse assessed as change in glucose level at 200 mg/kg twice daily for 60 days relative to control; format: organism-based; conditions: in vivo, 1440 h, time 60 day
[32] = Toxicity in C57BL/6J mouse assessed as change in platelet distribution width at 200 mg/kg twice daily for 60 days relative to control; format: organism-based; conditions: in vivo, 1440 h, time 60 day
[33] = Toxicity in C57BL/6J mouse assessed as change in platelet ratio at 200 mg/kg twice daily for 60 days relative to control; format: organism-based; conditions: in vivo, 1440 h, time 60 day

CN(C)C(=N)NC(=N)NS(=O)(=O)C(F)(F)F
Activity [1]: 75.9% | Activity [2]: 62.2% | Activity [3]: 60% | Activity (Platelet [4]): Non-Toxic | level, % of control at 50 µM [5]: 74.3% | level, % of control at 100 µM [6]: 44.5% | level, % of control at 500 µM [7]: 37.5% | level, % of control at 10 µM [8]: 72.8% | level, % of control at 50 µM [9]: 58.9% | Activity (Platelet [10]): 37% | Activity (Mus musculus [11]): 1.1 mg | Activity (Mus musculus [12]): 1.5 mm | Activity (Platelet [13]): 28.4% | Activity (Mus musculus [14]): Active | Activity (Mus musculus [15]): Active | half-life [16]: 4.94 h | CLz/F [17]: 0.998 L/h/kg | Activity [18]: Non-Toxic | Activity [19]: Non-Toxic | Activity [20]: Non-Toxic | Time (Mus musculus [21]): 10.1 min | Time (Mus musculus [22]): 21.2 min | Time (Mus musculus [23]): 22.1 min | Activity (Mus musculus [24]): Active | Activity (Mus musculus [25]): Active | Activity (Mus musculus [26]): Active | Activity [27]: Non-Toxic | Activity [28]: Non-Toxic | Activity [29]: Non-Toxic | Activity [30]: Non-Toxic | Activity [31]: Non-Toxic | Activity [32]: Non-Toxic | Activity [33]: Non-Toxic
